± gives the expanded uncertainty stated by the source.
Settings: DTA; for Triple point temperature: Crystal 2; for Normal melting temperature: Crystal

SMILES | Triple point temperature | Normal melting temperature
O=S(=O)([N-]S(=O)(=O)C(F)(F)C(F)(F)F)C(F)(F)C(F)(F)F.[K+] [potassium bis(pentafluoroethylsulfonyl) amide] | 427 ± 2 K | 273 ± 2 °C
O=S(=O)([N-]S(=O)(=O)C(F)(F)C(F)(F)F)C(F)(F)C(F)(F)F.[Rb+] [rubidium bis((perfluoroethyl)sulfonyl)amide] | 419 ± 2 K | 266 ± 2 °C
O=S(=O)([N-]S(=O)(=O)C(F)(F)C(F)(F)F)C(F)(F)C(F)(F)F.[Na+] [sodium bis(pentafluoroethylsulfonyl)amide] | 454 ± 2 K | 266 ± 2 °C
O=S(=O)([N-]S(=O)(=O)C(F)(F)C(F)(F)F)C(F)(F)C(F)(F)F.[Cs+] [cesium bis((perfluoroethyl)sulfonyl)amide] | 369 ± 2 K | 253 ± 2 °C
O=S(=O)([N-]S(=O)(=O)C(F)(F)C(F)(F)F)C(F)(F)C(F)(F)F.[Li+] [lithium bis(pentafluoroethylsulfonyl)amide] | 485 ± 2 K | 328 ± 2 °C
